From ChEMBL document CHEMBL1139897, “Design of potent PPARalpha agonists” (Bioorg Med Chem Lett, 2007) come the findings set out here.

One may read the EC50 as the concentration at which the effect is half-maximal. A high value points to weaker potency. Broadly, the bioavailability is dose-corrected exposure relative to a reference, in per cent. The term half-life denotes the time needed for the level to fall by half in the phase considered. High values mean slow decline, low ones rapid decline. The Cmax is the peak of the concentration-time curve.

Data set [1] deals with T1, Peroxisome proliferator-activated receptor alpha (Homo sapiens, UniProt Q07869).
T1 sequence (Q07869 whole entry): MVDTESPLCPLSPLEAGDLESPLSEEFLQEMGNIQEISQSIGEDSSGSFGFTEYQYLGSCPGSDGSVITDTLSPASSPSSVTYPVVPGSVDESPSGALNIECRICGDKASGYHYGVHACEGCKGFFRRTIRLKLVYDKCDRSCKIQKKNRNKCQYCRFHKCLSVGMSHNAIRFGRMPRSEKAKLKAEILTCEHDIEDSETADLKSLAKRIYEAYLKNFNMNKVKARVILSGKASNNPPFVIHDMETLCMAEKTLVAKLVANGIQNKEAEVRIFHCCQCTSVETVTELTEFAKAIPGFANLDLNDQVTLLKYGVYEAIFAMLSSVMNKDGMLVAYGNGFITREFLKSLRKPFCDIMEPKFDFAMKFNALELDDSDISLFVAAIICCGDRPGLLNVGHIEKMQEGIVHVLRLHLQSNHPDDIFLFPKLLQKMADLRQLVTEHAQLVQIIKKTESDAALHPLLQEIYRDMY
The data set is described as follows: Agonist activity at human PPARalpha by transactivation assay. It counts as functional.

For data set [2], the target named is T2, Peroxisome proliferator-activated receptor alpha (Homo sapiens) (UniProt Q07869).
T2 sequence (whole entry): T1 sequence (Q07869 whole entry)
As to the kind of experiment: Agonist activity at human PPARalpha by transactivation assay relative to WY-14643. Type of data set: functional.

Data set [3] addresses T3, Peroxisome proliferator-activated receptor delta (Homo sapiens, UniProt Q03181).
T3 sequence (Q03181 whole entry): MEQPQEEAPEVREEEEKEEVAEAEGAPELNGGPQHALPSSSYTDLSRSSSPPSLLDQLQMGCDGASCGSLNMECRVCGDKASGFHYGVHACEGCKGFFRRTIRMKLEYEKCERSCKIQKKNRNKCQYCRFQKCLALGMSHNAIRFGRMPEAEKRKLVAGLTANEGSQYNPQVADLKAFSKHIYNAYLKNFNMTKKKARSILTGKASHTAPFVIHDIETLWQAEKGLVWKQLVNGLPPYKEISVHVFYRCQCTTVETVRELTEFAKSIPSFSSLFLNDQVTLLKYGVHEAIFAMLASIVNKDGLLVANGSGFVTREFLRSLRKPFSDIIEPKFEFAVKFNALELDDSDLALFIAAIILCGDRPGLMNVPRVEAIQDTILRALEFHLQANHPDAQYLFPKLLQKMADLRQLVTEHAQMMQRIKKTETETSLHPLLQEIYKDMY
The data set is described as follows: Agonist activity at human PPARdelta by transactivation assay. It counts as functional.

Data set [4] has as its target T4, Peroxisome proliferator-activated receptor gamma (Homo sapiens, UniProt P37231).
T4 sequence (P37231 whole entry): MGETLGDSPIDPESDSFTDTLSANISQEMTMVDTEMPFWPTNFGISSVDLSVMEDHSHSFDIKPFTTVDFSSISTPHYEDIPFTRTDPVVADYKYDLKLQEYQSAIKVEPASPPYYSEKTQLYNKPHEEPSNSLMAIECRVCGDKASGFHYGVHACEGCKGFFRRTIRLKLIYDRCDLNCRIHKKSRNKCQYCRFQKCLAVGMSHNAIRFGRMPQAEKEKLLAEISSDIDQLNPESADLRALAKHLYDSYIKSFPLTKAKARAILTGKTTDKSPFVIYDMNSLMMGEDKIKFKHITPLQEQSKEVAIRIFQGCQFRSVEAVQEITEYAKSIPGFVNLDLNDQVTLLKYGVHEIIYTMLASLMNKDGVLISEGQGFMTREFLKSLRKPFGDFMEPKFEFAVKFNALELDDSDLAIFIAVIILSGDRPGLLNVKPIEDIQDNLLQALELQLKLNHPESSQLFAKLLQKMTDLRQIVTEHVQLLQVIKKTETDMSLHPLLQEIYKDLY
Description: Agonist activity at human PPARgamma by transactivation assay

Data set [5] in a line: Oral bioavailability in rat at 2.5 mg/kg. It counts as ADME, organism-based. As to conditions: in vivo.
Data set [6] is described as follows: Half life in rat at 2.5 mg/kg, po. Particulars: in vivo. Type of data set: ADME, organism-based. Details: dose 2.5 mg/kg, route oral.
Data set [7] can be described thus: Cmax in rat at 2.5 mg/kg, po. More on the design: dose 2.5 mg/kg, route oral. As to conditions: in vivo. Type of data set: ADME, organism-based.

Regarding `CCO[C@@H](Cc1ccc(OC/C=C/c2cc(-c3ccccc3)cc(-c3ccccc3)c2)cc1)C(=O)O`, the figures for the EC50 in data set [1], in data set [3] and in data set [4] were 20 nM, 4000 nM and 200 nM, respectively. The molecule further displayed an Activity in data set [2] of 30%.
Take `CCO[C@@H](Cc1ccc(OC/C=C/c2cc(-c3ccc(C(C)(C)C)cc3)cc(-c3ccc(C(C)(C)C)cc3)c2)cc1)C(=O)O`: the 50% effective concentration (EC50) amounted to 14000 nM in data set [1] and 1000 nM in data set [4]. In data set [2], this molecule had an Activity of 110%.
On to `CCO[C@@H](Cc1ccc(OC/C=C/c2cc(/C=C/c3ccccc3)cc(/C=C/c3ccccc3)c2)cc1)C(=O)O`, for which the results for the EC50 in data set [1] and in data set [4] were 90 nM and 3000 nM, respectively. Besides, in data set [2], the Activity stood at 66%.
In the case of `CCO[C@@H](Cc1ccc(OC/C=C/c2cc(OC3CCCC3)cc(OC3CCCC3)c2)cc1)C(=O)O`, the results for the EC50 in data set [1], in data set [3] and in data set [4] were 20 nM, 15000 nM and 300 nM, respectively. In addition, the Activity in data set [2] was found to be 135%.
On to `CCOc1cc(/C=C/COc2ccc(C[C@H](OCC)C(=O)O)cc2)cc(OCC)c1`, for which the EC50 in data set [1] worked out at 20 nM; in data set [3] it was 7900 nM; in data set [4], 200 nM. The same molecule displayed an Activity in data set [2] of 197%. In addition, the bioavailability in data set [5] was found to be 86%. In data set [6], this molecule had a half-life of 2.17 h. The molecule further registered a Cmax in data set [7] of 6160 ng/mL.
`CCO[C@@H](Cc1ccc(OC/C=C/c2cc(OCC(F)(F)F)cc(OCC(F)(F)F)c2)cc1)C(=O)O`: the figures for the 50% effective concentration (EC50) in data set [1], in data set [3] and in data set [4] were 2 nM, 4000 nM and 800 nM, respectively. Also, in data set [2], the Activity stood at 149%.
Regarding `CCO[C@@H](Cc1ccc(OC/C=C/c2cc(C(F)(F)F)cc(C(F)(F)F)c2)cc1)C(=O)O`, the EC50 amounted to 20 nM in data set [1], 1400 nM in data set [3] and 400 nM in data set [4]. In data set [2], this molecule registered an Activity of 195%.
As to `CCO[C@@H](Cc1ccc(OC/C=C/c2cc(Br)cc(Br)c2)cc1)C(=O)O`, the values for the EC50 in data set [1], in data set [3] and in data set [4] were 300 nM, 20000 nM and 4100 nM, respectively. In data set [2], the Activity was found to be 121%.
In data set [1], `CCO[C@@H](Cc1ccc(OC/C=C(\C)c2ccc(-c3ccccc3)cc2)cc1)C(=O)O` gave an EC50 of 500 nM. The molecule also showed an Activity in data set [2] of 158%.
As for `CCO[C@@H](Cc1ccc(OC/C=C/c2ccccc2)cc1)C(=O)O`, the EC50 in data set [1] came to 1600 nM; in data set [3] it was 18000 nM; in data set [4], 8000 nM. The Activity in data set [2] was 169%.
Consider `CCO[C@@H](Cc1ccc(OC/C=C/c2cc(OC(C)C)cc(OC(C)C)c2)cc1)C(=O)O`, for which the EC50 in data set [1] came to 4 nM; in data set [3], 6000 nM; in data set [4] it was 80 nM. Besides, in data set [2], the Activity is 207%. The same molecule gave a bioavailability in data set [5] of 95%. The half-life in data set [6] turned out to be 2.42 h. In addition, in data set [7], the highest level (Cmax) was 1840 ng/mL.
Consider `CCO[C@@H](Cc1ccc(OC/C=C/c2cc(C#Cc3ccccc3)cc(C#Cc3ccccc3)c2)cc1)C(=O)O`, for which the EC50 was found to be 500 nM in data set [1] and 3100 nM in data set [4]. This molecule displayed an Activity in data set [2] of 108%.
For the molecule `CCO[C@@H](Cc1ccc(OC/C=C/c2cc(OC(=O)c3ccccc3)cc(OC(=O)c3ccccc3)c2)cc1)C(=O)O`, the EC50 is 50 nM in data set [1] and 190 nM in data set [4]. For the same molecule, in data set [2], the Activity came out at 121%.
For `CCO[C@@H](Cc1ccc(OC/C=C/c2cc(CCc3ccccc3)cc(CCc3ccccc3)c2)cc1)C(=O)O`, the EC50 in data set [1] worked out at 30 nM; in data set [4], 5100 nM. The molecule further came in with an Activity in data set [2] of 118%.
As for `CCO[C@@H](Cc1ccc(OC/C=C/c2cc(OC)cc(OC)c2)cc1)C(=O)O`, the Activity in data set [2] was 186%. The EC50 in data set [3] is 13000 nM.
